Results from patent US7750016B2, “Hydroxyalkyl substituted pyrido-7-pyrimidin-7-ones” (Roche Palo Alto LLC, priority 2003, dated 2010).
pIC50: −log10 of the molar value. Structures can show the parent of a compound that is named as a salt.

Assays:
[1] = system: LPS-induced IL-1β production in undiluted human whole blood; assay: human whole blood (HWB) in vitro assay, IL-1β ELISA; format: cell-based; conditions: 0.5 μg/mL LPS, 18 hours, 30 min pre-incubation
Procedure: LPS (lipopolysaccharide) treatment of human whole blood induces IL-1β (Interleukin-1β) production that can be measured by an IL-1β specific ELISA. Human whole blood was pre-incubated with the indicated concentrations of a compound of the present invention in 0.5% DMSO (final concentration) for 30 min at 37° C. Samples were stimulated with 0.5 μg/mL of lipopolysaccharide (LPS, from Sigma) (final concentration) for 18 hours to induce the synthesis and secretion of IL-1β which was measured using an IL-1β ELISA.
A stock solution of 6 mM in DMSO (from Sigma) was prepared by dissolving the compound in DMSO in 449 μL of DMSO. From the 6 mM stock solution, six subsequent half-log serial dilutions in DMSO were performed to give the following concentrations: 1.9 mM, 600, 190, 60, 19, and 6 μM. […] 216 μL DMSO was placed in each of tubes 2-7.
Reconstitution of LPS: in the 10 mg. vial of LPS, 10 mL 1× Phosphate-Buffered Saline (i.e., 1×PBS, from Gibco-BRL) was added, mixed well and transferred to a 50 mL tube. Another 10 mL was added to the LPS vial, followed by rinsing, and this rinse was added to the 50 mL tube and mixed will. The solution was filtered and sterilized, and aliquotted in desired amounts (100 μL aliquot was sufficient for 4 plates). This yielded a 0.5 mg/mL stock which was diluted 1/100 for use in protocol. Just prior to use, the LPS stock was diluted 1/100 (100 μL in 10 mL of RPMI) […]

melting point [°C] | pIC50 [1] | Structure (SMILES)
207.8 to 216.4 | – | CC(=O)Cn1c(=O)c(Oc2ccc(F)cc2F)cc2cnc(N[C@H](C)CO)nc21 (as salt: hydrochloride) [Compound 46, 6-(2,4-Difluoro-phenoxy)-2-((R)-2-hydroxy-1-methyl-ethylamino)-8-(2-oxo-propyl)-8H-pyrido[2,3-d]pyrimidin-7-one]
187.4 to 189.9 | – | C[C@H](O)Cn1c(=O)c(Oc2ccc(F)cc2F)cc2cnc(NC(C)(C)CO)nc21 (as salt: hydrochloride) [Compound 36, 6-(2,4-Difluoro-phenoxy)-2-(2-hydroxy-1,1-dimethyl-ethylamino)-8-((S)-2-hydroxy-propyl)-8H-pyrido[2,3-d]pyrimidin-7-one]
175.1 to 179.1 | – | C[C@H](O)Cn1c(=O)c(Oc2ccc(F)cc2F)cc2cnc(N[C@@H](C)CO)nc21 (as salt: hydrochloride) [Compound 16, 6-(2,4-Difluoro-phenoxy)-2-((S)-2-hydroxy-1-methyl-ethylamino)-8-((S)-2-hydroxy-propyl)-8H-pyrido[2,3-d]pyrimidin-7-one]
207.9 to 214.6 | – | CC(=O)Cn1c(=O)c(Oc2ccc(F)cc2F)cc2cnc(N[C@@H](C)CO)nc21 (as salt: hydrochloride) [Compound 45, 6-(2,4-Difluoro-phenoxy)-2-((S)-2-hydroxy-1-methyl-ethylamino)-8-(2-oxo-propyl)-8H-pyrido[2,3-d]pyrimidin-7-one]
186 to 189.1 | – | C[C@@H](O)Cn1c(=O)c(Oc2ccc(F)cc2F)cc2cnc(N[C@@H](C)CO)nc21 (as salt: hydrochloride) [Compound 41, 6-(2,4-Difluoro-phenoxy)-2-((S)-2-hydroxy-1-methyl-ethylamino)-8-((R)-2-hydroxy-propyl)-8H-pyrido[2,3-d]pyrimidin-7-one]
174.9 to 178.1 | – | C[C@H](O)Cn1c(=O)c(Oc2ccc(F)cc2F)cc2cnc(N[C@H](C)CO)nc21 (as salt: hydrochloride) [Compound 17, 6-(2,4-Difluoro-phenoxy)-2-((R)-2-hydroxy-1-methyl-ethylamino)-8-((S)-2-hydroxy-propyl)-8H-pyrido[2,3-d]pyrimidin-7-one]
– | 9.00 | C[C@@H](O)Cn1c(=O)c(Oc2ccc(F)cc2F)cc2cnc(NC3CCOCC3)nc21 [Compound 20, 6-(2,4-Difluoro-phenoxy)-8-((R)-2-hydroxy-propyl)-2-(tetrahydro-pyran-4-ylamino)-8H-pyrido[2,3-d]pyrimidin-7-one]
181.5 to 184.4 | – | C[C@H](CO)Nc1ncc2cc(Oc3ccc(F)cc3F)c(=O)n(C[C@@H](C)O)c2n1 (as salt: hydrochloride) [Compound 42, 6-(2,4-Difluoro-phenoxy)-2-((R)-2-hydroxy-1-methyl-ethylamino)-8-((R)-2-hydroxy-propyl)-8H-pyrido[2,3-d]pyrimidin-7-one]
182 to 183.9 | – | C[C@@H](O)Cn1c(=O)c(Oc2ccc(F)cc2F)cc2cnc(NC(C)(C)CO)nc21 (as salt: hydrochloride) [Compound 31, 6-(2,4-Difluoro-phenoxy)-2-(2-hydroxy-1,1-dimethyl-ethylamino)-8-((R)-2-hydroxy-propyl)-8H-pyrido[2,3-d]pyrimidin-7-one]
